Measured values published in ChEMBL document CHEMBL5465560, “Selectivity Literature for EUbOPEN Chemogenomic Library” (2024).

Experiments:
[1] = target: T1, Serine/threonine-protein kinase 3 (Homo sapiens) (UniProt Q13188); test: Selectivity interaction (KinomeScan (DiscoverX)) EUB0000229b STK3; conditions: at 10 µM
T1 sequence (whole entry): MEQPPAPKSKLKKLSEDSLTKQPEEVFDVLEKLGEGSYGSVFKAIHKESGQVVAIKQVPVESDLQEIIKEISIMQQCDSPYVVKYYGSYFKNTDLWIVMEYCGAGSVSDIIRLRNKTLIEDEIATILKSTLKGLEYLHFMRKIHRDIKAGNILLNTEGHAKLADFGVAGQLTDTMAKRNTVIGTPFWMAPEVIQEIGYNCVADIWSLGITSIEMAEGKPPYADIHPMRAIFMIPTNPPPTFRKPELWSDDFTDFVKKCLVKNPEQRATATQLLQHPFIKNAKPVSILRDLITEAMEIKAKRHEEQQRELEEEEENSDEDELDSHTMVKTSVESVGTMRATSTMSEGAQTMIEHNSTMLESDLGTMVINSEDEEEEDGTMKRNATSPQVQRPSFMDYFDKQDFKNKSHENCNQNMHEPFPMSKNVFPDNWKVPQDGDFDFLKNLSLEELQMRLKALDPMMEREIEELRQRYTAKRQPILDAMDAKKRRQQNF

[2] = test system: Tyrosine-protein kinase ABL1 (Homo sapiens), P00519 [F317L]; test: Selectivity interaction (KinomeScan (DiscoverX)) EUB0000666a ABL1; conditions: at 10 µM
[3] = target: T2, cGMP-dependent protein kinase 1 (Homo sapiens) (UniProt Q13976); test: Selectivity interaction (SelectScreen profiling (Invitrogen)) EUB0000607a PRKG1; conditions: at 2 µM
T2 sequence (whole entry): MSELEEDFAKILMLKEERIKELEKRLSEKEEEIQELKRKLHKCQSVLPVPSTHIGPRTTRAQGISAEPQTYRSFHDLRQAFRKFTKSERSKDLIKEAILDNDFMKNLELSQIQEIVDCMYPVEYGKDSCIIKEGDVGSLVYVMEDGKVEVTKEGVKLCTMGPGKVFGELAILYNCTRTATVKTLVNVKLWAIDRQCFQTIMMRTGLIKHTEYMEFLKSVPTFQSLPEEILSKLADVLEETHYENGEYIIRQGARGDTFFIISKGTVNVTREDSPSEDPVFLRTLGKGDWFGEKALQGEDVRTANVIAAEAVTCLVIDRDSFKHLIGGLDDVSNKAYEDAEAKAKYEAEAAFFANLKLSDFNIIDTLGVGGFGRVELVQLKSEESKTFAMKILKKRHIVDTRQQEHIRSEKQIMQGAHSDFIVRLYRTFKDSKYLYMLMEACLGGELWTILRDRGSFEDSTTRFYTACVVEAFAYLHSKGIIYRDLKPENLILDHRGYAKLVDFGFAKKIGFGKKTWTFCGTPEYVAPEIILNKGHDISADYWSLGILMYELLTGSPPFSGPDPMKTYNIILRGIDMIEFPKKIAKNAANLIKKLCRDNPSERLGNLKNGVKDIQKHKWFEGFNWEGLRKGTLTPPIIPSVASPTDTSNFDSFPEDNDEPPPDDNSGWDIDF

[4] = target: T3, Mitogen-activated protein kinase kinase kinase 13 (Homo sapiens) (UniProt O43283); test: Selectivity interaction (KinomeScan (DiscoverX)) EUB0000618a MAP3K13; conditions: at 10 µM
T3 sequence (whole entry): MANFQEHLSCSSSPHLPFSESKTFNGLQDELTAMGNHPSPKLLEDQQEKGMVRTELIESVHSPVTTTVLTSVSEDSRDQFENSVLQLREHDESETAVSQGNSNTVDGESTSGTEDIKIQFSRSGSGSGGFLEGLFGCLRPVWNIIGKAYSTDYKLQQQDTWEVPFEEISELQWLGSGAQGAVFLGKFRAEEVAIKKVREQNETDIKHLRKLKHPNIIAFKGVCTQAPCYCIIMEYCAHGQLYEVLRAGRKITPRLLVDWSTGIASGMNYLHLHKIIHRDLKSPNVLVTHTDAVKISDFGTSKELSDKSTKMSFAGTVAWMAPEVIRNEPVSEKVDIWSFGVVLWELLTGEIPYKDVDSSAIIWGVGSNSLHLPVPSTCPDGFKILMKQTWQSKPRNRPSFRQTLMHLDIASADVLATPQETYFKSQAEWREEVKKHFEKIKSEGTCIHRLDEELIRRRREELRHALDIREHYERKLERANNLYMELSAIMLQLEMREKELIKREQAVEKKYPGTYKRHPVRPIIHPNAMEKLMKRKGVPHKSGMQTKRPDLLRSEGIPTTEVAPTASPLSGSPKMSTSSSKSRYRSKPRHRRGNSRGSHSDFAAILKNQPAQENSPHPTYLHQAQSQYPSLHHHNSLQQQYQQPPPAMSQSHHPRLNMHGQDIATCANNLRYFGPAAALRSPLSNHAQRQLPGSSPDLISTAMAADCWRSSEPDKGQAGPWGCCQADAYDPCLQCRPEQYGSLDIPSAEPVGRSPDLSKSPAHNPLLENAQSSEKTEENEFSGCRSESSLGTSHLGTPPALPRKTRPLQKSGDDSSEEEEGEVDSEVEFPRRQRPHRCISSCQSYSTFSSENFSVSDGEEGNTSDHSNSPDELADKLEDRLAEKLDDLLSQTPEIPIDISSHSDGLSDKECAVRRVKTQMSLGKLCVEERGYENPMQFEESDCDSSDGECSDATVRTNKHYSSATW

[5] = target: Serine-protein kinase ATM (Homo sapiens) (UniProt Q13315); test: Selectivity interaction (ActivX KiNativ screen (kinase selectivity in THP-1 cell lysates)) EUB0000639a ATM; format: subcellular; conditions: lysate
Serine-protein kinase ATM (Homo sapiens), sequence (Q13315 whole entry): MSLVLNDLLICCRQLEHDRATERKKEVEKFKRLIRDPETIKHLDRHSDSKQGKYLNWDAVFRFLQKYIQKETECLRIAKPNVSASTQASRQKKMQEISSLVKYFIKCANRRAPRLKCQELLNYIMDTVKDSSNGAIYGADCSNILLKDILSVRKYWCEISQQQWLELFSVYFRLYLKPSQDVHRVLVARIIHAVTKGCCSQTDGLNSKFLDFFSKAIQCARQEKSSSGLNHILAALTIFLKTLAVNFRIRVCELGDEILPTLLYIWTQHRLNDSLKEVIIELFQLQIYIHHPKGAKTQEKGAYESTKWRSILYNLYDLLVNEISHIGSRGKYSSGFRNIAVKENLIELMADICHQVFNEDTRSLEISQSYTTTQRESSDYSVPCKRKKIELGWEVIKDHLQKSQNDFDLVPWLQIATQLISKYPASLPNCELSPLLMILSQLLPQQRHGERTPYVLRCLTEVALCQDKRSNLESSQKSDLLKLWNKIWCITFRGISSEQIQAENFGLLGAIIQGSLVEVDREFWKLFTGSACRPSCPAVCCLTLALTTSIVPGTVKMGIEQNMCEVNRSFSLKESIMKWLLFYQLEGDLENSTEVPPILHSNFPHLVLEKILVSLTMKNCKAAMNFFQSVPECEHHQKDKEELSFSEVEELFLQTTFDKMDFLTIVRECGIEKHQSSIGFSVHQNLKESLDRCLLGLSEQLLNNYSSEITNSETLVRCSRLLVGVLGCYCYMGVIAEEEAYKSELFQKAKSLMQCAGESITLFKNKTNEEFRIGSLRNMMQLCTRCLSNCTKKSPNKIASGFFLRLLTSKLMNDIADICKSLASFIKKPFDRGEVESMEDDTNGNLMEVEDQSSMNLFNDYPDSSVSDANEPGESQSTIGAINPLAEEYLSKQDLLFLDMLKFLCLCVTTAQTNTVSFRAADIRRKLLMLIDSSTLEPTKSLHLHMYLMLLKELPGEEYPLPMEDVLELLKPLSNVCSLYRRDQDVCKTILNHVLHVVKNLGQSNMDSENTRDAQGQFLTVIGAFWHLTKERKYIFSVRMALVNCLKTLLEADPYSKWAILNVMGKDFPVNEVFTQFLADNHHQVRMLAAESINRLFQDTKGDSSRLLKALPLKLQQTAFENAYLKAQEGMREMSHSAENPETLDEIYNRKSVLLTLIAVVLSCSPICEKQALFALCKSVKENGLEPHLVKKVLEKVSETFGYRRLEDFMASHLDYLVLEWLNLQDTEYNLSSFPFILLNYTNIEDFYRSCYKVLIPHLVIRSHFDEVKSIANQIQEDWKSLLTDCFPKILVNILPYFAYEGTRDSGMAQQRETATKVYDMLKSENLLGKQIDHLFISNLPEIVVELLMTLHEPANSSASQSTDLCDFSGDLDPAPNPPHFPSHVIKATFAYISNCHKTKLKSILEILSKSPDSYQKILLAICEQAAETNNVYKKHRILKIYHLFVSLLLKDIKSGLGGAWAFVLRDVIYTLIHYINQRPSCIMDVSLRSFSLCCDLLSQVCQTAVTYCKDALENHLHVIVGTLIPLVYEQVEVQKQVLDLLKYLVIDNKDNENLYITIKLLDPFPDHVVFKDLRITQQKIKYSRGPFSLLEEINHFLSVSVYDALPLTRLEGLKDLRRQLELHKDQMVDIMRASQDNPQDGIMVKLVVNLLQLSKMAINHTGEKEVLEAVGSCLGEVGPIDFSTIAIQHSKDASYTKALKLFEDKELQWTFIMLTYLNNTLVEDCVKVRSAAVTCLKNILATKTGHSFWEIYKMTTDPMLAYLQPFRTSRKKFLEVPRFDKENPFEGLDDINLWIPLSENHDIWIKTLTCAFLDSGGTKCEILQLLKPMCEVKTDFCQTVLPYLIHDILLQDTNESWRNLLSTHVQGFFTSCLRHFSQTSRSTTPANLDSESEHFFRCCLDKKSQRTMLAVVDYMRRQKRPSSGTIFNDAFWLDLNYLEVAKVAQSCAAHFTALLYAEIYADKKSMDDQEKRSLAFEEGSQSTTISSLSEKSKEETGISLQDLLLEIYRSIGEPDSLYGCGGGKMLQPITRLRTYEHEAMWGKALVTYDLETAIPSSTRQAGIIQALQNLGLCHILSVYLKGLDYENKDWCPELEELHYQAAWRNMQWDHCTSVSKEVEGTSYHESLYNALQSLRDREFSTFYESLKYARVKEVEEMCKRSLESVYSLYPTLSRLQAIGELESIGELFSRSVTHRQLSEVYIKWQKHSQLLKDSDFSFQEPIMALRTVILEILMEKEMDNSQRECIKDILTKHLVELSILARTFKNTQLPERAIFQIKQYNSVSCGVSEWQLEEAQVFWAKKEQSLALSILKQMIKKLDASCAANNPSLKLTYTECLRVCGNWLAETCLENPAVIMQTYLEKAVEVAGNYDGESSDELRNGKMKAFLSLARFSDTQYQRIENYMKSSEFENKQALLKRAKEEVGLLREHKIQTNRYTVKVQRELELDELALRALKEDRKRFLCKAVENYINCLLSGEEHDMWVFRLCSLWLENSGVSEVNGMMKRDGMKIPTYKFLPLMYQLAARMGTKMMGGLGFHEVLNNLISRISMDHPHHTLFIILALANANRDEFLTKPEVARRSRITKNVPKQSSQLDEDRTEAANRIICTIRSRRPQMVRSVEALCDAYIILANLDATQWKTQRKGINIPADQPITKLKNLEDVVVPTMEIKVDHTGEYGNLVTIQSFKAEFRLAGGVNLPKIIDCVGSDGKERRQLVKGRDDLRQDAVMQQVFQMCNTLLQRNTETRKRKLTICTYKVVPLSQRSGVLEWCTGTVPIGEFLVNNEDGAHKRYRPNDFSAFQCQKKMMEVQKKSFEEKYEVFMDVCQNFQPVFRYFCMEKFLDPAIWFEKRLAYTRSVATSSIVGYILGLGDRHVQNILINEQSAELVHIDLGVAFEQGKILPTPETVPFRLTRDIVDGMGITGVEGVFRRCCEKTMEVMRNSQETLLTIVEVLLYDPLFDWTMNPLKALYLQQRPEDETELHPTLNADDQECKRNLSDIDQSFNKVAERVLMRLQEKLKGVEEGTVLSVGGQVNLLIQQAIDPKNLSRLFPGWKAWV

Tyrosine-protein kinase ABL1 (Homo sapiens), P00519 [F317L], sequence (P00519 whole entry F317L): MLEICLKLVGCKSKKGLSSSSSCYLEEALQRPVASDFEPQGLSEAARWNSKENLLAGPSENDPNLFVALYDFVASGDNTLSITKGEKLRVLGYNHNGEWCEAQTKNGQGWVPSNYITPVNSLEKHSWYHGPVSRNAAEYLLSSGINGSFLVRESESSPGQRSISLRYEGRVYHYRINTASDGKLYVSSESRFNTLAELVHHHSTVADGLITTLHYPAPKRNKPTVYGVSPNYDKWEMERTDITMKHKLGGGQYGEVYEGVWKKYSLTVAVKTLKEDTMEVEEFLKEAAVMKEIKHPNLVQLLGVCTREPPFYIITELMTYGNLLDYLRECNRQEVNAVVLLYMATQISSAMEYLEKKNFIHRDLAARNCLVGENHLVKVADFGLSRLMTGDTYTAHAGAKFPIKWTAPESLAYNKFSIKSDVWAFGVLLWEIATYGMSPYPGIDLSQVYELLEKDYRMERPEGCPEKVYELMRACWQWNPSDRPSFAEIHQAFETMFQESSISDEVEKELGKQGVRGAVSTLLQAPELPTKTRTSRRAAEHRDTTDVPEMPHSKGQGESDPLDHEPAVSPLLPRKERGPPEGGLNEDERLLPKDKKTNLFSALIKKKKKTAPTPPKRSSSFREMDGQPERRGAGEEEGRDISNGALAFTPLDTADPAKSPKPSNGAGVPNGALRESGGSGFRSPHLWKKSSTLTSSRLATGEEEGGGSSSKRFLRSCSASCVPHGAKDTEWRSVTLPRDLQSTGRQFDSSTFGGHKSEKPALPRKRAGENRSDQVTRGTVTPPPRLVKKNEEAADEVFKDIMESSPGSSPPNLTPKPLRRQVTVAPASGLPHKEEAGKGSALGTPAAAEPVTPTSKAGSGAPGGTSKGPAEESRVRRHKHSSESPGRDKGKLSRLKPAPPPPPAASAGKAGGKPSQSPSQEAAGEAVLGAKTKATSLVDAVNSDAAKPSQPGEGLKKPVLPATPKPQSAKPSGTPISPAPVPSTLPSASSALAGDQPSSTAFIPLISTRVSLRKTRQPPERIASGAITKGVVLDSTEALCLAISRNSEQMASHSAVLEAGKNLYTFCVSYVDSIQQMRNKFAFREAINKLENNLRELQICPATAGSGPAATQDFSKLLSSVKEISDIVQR

COc1cc(N(C)c2ccnc3ccc(C(F)(F)F)cc23)cc(OC)c1OC
% binding [1]: 93%

O=C(NOC[C@H](O)CO)c1ccc(F)c(F)c1Nc1ccc(I)cc1F
% of control [2]: 86%

CNC(=O)Nc1ccc(-c2nc(N3CC4CCC(C3)O4)c3cnn(C4CCC5(CC4)OCCO5)c3n2)cc1
% of inhibition [3]: 1%

O[C@H]1CC[C@H](Nc2ncc3nc(Nc4c(F)cc(F)cc4F)n([C@H]4CCOC4)c3n2)CC1
% of control [4]: 100%

CC[C@@H]1[C@H](F)C(=O)N[C@@H]1COc1nccc2cc(C(N)=O)c(OC)cc12 [ZIMLOVISERTIB]
% of inhibition ([5]; at 0.01 µM): 12.7%
% of inhibition ([5]; at 0.04 µM): -2.1%
% of inhibition ([5]; at 0.2 µM): -2.2%
% of inhibition ([5]; at 1 µM): -15.7%
% of inhibition ([5]; at 5 µM): 24%
